Activity calls are given as the source filed them.
Legend:
HEK293 [1] = test: NOD1 signaling inhibitors, primary screen, cell-based, luminescence, uHTS (AID 1578); type: functional; conditions: Homo sapiens
HEK293 [2] = test: cells; type: functional, cell-based; conditions: Homo sapiens
HEK293 [3] = test: cells; type: functional, cell-based; conditions: Homo sapiens; remark: listed apart in the source
HEK293 [4] = test: NOD2 signaling inhibitors in MDP-stimulated cells, cell-based, uHTS, luminescence (AID 2001); type: functional; conditions: Homo sapiens
[5] = target: Induced myeloid leukemia cell differentiation protein Mcl-1 (Homo sapiens, UniProt Q07820); type: functional
Induced myeloid leukemia cell differentiation protein Mcl-1, sequence (Q07820 whole entry): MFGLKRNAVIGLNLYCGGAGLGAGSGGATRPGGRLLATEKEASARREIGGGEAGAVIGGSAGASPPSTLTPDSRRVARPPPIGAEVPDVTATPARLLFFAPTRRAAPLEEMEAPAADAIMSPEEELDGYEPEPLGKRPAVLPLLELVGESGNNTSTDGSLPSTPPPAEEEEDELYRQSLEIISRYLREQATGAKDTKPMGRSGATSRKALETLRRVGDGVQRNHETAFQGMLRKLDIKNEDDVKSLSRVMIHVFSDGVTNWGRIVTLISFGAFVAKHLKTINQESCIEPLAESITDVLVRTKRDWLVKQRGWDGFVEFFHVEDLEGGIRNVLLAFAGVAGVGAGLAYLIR

Cysteine protease ATG4B = target: T1, Cysteine protease ATG4B (Homo sapiens, UniProt Q9Y4P1); type: functional;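 further: Fluorescence-based dose-response confirmation assay measuring inhibition of ATG4B activity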
T1 sequence (Q9Y4P1 whole entry): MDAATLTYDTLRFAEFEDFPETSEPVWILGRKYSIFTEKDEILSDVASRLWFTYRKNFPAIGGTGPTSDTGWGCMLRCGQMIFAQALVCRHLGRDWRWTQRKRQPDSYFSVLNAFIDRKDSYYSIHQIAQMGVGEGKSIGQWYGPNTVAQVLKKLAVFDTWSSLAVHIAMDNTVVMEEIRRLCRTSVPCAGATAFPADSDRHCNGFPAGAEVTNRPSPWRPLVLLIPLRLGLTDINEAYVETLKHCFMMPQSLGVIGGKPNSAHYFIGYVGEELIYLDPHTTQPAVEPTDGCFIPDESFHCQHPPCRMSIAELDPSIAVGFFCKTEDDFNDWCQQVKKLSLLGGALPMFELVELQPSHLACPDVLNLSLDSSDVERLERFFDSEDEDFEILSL

Phospholipase A2 = Phospholipase A2 (Homo sapiens, UniProt P04054); type: functional;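 further: confirmatory dose-response counterscreen on phospholipase A2, testing hits that came from an ultra-high-throughput screen for ATG4B inhibitors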
Phospholipase A2, sequence (P04054 whole entry): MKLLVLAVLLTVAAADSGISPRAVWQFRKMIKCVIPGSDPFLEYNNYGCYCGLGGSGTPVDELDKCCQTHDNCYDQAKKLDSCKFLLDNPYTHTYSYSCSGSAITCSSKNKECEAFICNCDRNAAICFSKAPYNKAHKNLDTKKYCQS

Genome polyprotein = Genome polyprotein (dengue virus type 2, UniProt P29990); test: Dengue-2 NS5 methyltransferase inhibitors, primary screen, biochemical, confirmation dose response (AID 588689); type: functional
Genome polyprotein, sequence (P29990 2492-3391 limits assumed): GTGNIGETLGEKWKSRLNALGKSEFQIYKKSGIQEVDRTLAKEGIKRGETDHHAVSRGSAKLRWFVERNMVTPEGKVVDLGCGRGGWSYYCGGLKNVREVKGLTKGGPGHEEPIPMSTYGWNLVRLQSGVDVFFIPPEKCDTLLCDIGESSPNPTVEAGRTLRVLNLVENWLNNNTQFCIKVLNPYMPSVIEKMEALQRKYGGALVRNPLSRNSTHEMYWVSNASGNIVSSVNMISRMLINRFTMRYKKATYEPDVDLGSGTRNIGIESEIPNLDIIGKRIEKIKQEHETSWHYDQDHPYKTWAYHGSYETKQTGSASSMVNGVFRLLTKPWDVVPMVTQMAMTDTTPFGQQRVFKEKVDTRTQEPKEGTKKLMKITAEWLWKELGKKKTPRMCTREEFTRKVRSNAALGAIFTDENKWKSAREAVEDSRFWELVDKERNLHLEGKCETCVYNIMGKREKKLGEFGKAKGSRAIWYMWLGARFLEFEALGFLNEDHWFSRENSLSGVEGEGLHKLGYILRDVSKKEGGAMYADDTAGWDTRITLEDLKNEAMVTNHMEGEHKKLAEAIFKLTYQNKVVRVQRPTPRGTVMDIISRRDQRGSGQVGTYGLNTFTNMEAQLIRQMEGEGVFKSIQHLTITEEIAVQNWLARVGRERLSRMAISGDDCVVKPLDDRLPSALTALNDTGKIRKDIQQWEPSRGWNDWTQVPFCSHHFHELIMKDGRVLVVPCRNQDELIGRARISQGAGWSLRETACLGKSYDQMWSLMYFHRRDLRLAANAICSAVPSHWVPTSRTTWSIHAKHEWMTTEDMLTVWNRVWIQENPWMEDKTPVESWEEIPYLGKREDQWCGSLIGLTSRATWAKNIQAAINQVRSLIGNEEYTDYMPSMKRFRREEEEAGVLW

[6] = target: T2, Corticotropin-releasing factor receptor 2/Corticotropin-releasing factor-binding protein (Homo sapiens, UniProt P24387+Q13324); test: Dose Response confirmation of uHTS hits for small molecule antagonists of the CRF-binding protein and CRF-R2 receptor complex.; type: functional; conditions: read-out: IC50_Mean
T2 sequence (Q13324 whole entry): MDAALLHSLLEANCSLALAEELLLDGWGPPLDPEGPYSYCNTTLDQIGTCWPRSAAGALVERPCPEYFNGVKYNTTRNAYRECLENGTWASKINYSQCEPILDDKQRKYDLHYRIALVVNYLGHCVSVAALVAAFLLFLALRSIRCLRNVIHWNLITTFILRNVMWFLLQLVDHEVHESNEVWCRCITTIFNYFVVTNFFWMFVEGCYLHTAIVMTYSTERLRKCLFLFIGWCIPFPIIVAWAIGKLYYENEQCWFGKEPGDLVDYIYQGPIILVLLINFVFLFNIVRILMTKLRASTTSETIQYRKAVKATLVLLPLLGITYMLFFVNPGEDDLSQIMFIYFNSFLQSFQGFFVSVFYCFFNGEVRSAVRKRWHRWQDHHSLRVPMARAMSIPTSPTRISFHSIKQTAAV
T2 sequence (P24387 whole entry): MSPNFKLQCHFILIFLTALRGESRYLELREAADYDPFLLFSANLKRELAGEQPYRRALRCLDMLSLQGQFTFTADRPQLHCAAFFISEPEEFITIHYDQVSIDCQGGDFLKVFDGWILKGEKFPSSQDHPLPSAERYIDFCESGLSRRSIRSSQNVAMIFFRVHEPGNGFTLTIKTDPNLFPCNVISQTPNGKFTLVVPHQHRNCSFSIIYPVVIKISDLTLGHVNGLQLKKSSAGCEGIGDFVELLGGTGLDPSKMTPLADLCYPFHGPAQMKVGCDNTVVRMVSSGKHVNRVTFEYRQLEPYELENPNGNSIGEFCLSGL

[7] = target: T2, Corticotropin-releasing factor receptor 2/Corticotropin-releasing factor-binding protein; test: activators of CRF receptor 2 with binding protein – uHTS hits, confirmation (AID 602473); type: functional; conditions: read-out: EC50_Mean
[8] = CRF-BP/CRF-R2 complex antagonists, dose response, cell-based, uHTS hits, 384-well (AID 651639); type: functional, Homo sapiens; conditions: read-out: IC50_Mean
Cytochrome P450 2D6 = Cytochrome P450 2D6 (Homo sapiens, UniProt P10635);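 further: CYP2D6 member of a cytochrome P450 panel assay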
Cytochrome P450 2D6, sequence (P10635 whole entry): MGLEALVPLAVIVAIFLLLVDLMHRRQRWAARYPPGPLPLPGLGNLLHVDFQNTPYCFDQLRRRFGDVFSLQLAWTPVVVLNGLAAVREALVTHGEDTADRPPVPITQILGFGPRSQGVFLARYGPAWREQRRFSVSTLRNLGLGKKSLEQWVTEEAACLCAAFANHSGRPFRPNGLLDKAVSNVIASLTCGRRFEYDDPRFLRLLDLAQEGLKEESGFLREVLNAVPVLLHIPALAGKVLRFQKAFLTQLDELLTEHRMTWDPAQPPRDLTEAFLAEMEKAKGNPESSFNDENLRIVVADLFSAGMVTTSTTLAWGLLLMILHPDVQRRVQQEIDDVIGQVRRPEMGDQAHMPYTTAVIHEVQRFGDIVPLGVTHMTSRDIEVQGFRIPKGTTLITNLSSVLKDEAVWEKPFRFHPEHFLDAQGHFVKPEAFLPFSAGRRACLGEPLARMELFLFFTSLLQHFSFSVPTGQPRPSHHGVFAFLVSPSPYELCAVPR

Cytochrome P450 1A2 = target: T3, Cytochrome P450 1A2 (Homo sapiens, UniProt P05177);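 further: PubChem cytochrome P450 panel assay, CYP1A2 panel member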
T3 sequence (P05177 whole entry): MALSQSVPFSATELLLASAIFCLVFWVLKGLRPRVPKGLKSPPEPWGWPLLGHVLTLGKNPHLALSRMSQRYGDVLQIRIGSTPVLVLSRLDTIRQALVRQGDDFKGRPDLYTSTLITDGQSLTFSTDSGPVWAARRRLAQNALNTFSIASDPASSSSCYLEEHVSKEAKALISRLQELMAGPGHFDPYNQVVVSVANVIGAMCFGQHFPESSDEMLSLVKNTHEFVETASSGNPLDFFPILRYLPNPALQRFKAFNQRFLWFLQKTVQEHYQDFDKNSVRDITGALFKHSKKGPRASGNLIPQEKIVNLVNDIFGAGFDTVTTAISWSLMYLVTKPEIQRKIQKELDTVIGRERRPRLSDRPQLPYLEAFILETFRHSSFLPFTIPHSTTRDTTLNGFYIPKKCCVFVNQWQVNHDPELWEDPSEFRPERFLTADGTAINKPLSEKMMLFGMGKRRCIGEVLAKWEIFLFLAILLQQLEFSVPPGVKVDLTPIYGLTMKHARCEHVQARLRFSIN

Cytochrome P450 3A4 = Cytochrome P450 3A4 (Homo sapiens, UniProt P08684);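 further: CYP3A4 tested as one member of a cytochrome P450 panel screen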
[9] = target: Dual specificity tyrosine-phosphorylation-regulated kinase 1A (Rattus norvegicus, UniProt Q63470); type: biochemical, Homo sapiens
[10] = target: T4, Polyadenylate-binding protein 1 (Homo sapiens, UniProt P11940); test: PABP1 MLLE–PAM2 interaction inhibitors, dose response, miRNA deadenylation inhibitor project, biochemical, fluorescence polarization, Cy5-PAM2 peptide, secondary (AID 602260); type: functional; conditions: read-out: IC50_Mean
T4 sequence (P11940 whole entry): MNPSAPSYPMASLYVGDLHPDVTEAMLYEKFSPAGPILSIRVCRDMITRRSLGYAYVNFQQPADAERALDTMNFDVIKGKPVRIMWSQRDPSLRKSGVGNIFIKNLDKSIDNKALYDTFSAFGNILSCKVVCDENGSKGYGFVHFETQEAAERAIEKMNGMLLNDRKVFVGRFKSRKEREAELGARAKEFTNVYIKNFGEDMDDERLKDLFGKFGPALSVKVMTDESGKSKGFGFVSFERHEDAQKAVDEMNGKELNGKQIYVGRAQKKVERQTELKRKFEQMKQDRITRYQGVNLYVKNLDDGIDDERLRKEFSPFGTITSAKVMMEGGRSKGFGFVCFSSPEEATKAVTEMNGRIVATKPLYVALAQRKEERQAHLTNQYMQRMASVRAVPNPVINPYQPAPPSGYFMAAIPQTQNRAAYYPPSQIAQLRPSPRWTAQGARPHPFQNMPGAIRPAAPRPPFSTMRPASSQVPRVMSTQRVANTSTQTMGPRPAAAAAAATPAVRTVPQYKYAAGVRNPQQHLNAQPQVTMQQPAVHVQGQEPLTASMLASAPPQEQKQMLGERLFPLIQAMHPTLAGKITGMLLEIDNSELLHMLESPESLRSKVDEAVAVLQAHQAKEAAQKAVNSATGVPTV

[11] = target: T4, Polyadenylate-binding protein 1; test: PABP1 MLLE–PAM2 binding inhibitor potency, dose response, biochemical, fluorescence polarization, FITC-PAM2 peptide (AID 602259); type: functional; conditions: read-out: IC50_Mean
Cytochrome P450 2C9 = Cytochrome P450 2C9 (Homo sapiens, UniProt P11712)
[12] = target: Luciferin 4-monooxygenase (Photinus pyralis, UniProt P08659); test: firefly luciferase enzyme inhibitors, dose response, biochemical, luminescence (AID 1891)
Luciferin 4-monooxygenase, sequence (P08659 whole entry): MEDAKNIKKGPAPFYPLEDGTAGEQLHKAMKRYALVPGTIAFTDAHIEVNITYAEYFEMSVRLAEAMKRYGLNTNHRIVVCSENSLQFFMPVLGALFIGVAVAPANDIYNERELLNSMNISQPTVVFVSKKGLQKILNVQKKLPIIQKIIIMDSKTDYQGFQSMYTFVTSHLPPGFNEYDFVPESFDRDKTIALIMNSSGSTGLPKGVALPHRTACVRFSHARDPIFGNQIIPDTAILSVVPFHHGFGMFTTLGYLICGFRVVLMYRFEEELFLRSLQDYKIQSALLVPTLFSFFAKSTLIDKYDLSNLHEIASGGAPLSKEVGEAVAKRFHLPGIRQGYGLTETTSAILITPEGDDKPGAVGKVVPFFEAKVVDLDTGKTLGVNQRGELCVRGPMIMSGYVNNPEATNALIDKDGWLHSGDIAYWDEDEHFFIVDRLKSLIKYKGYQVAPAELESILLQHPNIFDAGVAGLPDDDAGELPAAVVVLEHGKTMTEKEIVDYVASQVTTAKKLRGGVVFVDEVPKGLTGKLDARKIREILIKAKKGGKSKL

[13] = Luminescence Cell-Based Dose Confirmation HTS to Identify Inhibitors of Platelet Dense Granule Release. [Related pubchem assays: 1663 (Primary HTS), 1678 (Summary of Project)]; type: functional
[14] = target: T5, Probable nicotinate-nucleotide adenylyltransferase (Staphylococcus aureus (strain N315), UniProt P65502); type: functional, Staphylococcus aureus subsp. aureus N315;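 on IC50 Mean: confirmatory dose-response retesting of NadD inhibitor hits first found in an ultra-high-throughput screen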
T5 sequence (P65502 whole entry): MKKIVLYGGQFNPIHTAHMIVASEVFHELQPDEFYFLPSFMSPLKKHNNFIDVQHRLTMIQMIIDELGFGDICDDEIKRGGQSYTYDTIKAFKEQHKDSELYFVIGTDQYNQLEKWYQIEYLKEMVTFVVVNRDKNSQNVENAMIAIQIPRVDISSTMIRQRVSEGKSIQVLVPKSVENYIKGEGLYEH

[15] = target: T5, Probable nicotinate-nucleotide adenylyltransferase; type: functional, Staphylococcus aureus subsp. aureus N315; conditions: read-out: IC50_Mean
[16] = target: T6, RNA-binding protein pos-1 (Caenorhabditis elegans, UniProt G5EF15); test: inhibitors of POS-1/mex-3 RNA binding, dose response, biochemical, fluorescence polarization (AID 1964);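 further: purified POS-1 fused to maltose binding protein made in E. coli; potency of compounds blocking POS-1 binding to fluorescent RNA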
T6 sequence (G5EF15 whole entry): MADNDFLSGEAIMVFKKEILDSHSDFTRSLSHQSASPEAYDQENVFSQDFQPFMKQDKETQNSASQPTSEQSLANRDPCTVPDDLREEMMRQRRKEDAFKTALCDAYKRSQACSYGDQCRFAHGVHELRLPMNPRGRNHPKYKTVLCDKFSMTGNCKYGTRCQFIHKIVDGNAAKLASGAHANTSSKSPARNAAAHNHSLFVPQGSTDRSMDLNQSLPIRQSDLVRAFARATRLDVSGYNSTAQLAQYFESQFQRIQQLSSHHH

[17] = target: T7, Zinc finger protein mex-5 (Caenorhabditis elegans, UniProt Q9XUB2); test: MEX-5/TCR-2 RNA interaction inhibitors, dose response, biochemical, C. elegans, fluorescence polarization (AID 1960)
T7 sequence (Q9XUB2 whole entry): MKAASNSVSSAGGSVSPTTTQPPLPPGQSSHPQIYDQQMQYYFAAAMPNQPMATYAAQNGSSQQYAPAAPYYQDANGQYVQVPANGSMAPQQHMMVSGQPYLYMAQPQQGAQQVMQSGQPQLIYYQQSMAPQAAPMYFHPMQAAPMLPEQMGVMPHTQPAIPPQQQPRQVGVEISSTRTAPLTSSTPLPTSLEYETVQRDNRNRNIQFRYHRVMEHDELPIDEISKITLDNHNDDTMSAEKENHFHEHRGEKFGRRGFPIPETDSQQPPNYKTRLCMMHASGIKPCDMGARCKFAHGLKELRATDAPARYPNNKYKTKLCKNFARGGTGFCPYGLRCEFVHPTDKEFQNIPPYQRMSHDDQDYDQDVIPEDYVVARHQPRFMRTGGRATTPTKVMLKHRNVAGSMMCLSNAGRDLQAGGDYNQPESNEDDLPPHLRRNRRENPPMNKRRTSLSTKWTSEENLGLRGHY

[18] = target: 26S proteasome non-ATPase regulatory subunit 14 (Homo sapiens, UniProt O00487); test: inhibition of proteasome subunit RPN11 – biochemical, fluorescence polarization, uHTS hits, confirmation (AID 602368); type: functional
26S proteasome non-ATPase regulatory subunit 14, sequence (O00487 whole entry): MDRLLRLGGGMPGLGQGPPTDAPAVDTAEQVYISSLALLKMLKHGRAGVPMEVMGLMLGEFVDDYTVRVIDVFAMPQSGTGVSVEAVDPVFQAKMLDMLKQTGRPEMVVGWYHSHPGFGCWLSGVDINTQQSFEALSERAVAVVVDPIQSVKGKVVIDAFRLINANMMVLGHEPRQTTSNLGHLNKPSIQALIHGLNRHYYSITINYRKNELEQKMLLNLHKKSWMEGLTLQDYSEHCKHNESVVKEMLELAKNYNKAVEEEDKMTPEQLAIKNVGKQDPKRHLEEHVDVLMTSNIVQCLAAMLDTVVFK

[19] = target: 72 kDa type IV collagenase (Homo sapiens, UniProt P08253); test: Dose Response validation of uHTS RPN11 inhibitor hits using a MMP-2 Fluorescence assay.; type: functional
72 kDa type IV collagenase, sequence (P08253 whole entry): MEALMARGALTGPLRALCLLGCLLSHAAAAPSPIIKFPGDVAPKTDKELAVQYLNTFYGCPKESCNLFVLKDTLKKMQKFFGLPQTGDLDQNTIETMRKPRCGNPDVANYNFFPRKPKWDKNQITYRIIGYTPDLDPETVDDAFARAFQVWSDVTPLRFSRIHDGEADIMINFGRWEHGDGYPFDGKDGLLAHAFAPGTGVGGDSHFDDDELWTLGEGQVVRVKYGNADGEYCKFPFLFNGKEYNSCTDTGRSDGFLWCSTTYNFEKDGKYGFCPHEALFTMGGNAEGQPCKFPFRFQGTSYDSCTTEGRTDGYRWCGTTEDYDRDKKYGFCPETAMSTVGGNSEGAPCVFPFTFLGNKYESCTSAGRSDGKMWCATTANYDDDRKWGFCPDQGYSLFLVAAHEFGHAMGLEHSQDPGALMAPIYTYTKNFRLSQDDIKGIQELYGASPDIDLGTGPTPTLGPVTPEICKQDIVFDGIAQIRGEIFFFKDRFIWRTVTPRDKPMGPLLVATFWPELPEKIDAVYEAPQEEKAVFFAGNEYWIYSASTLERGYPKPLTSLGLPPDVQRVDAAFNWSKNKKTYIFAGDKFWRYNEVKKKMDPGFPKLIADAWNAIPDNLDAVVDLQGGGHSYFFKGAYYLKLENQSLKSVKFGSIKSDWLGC

Prothrombin = Prothrombin (Bos taurus, UniProt P00735); test: thrombin inhibition, dose response, biochemical, fluorescence polarization, uHTS hits (AID 602369); type: functional
Melanocortin receptor 4 = Melanocortin receptor 4 (Homo sapiens, UniProt P32245); type: functional, cell-based;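 further: Cell-based assay with luminescence read-out, confirmatory dose-response testing for agonist activity of biased ligands at MC4R; human U2OS cells with tagged receptor and beta-arrestin; potency of agonists that increase receptor coupling to beta-arrestin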
Melanocortin receptor 4, sequence (P32245 whole entry): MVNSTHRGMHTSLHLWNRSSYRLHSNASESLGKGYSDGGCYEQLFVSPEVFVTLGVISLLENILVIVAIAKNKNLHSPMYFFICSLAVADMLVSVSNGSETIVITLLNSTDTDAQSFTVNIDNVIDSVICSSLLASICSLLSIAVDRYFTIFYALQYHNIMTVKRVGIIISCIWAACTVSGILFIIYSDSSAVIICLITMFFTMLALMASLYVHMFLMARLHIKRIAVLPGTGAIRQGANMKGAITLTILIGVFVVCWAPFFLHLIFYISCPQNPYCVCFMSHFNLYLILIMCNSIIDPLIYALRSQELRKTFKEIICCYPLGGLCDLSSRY

## CC(/C=C1\SC(=S)N(c2ccc(C(=O)O)cc2)C1=O)=C\c1ccccc1
HEK293 [1]
  EC50: 8.26 µM (active)
HEK293 [2]
  IC50: 4.09 µM (active)
HEK293 [3]
  IC50: > 20 µM (inactive)
HEK293 [4]
  IC50: 5.93 µM (active)
[5]
  IC50: 3.09 µM (active)
Cysteine protease ATG4B
  IC50: 5.25 µM (active)
Phospholipase A2
  IC50: 1.88 µM (active)
Genome polyprotein
  IC50: 33.7 µM (active)

## O=C1CC(c2cccc(F)c2)SC(N(c2ccccc2)c2ccccc2)=N1 (configuration not stated)
[6]
  IC50: 9.86 µM (active)
[7]
  EC50: > 53 µM (inactive)
[8]
  IC50: 16 µM (active)
Cytochrome P450 2D6
  AC50: 25.1 µM (inconclusive)
Cytochrome P450 1A2
  AC50: 8.91 µM (inconclusive)
Cytochrome P450 3A4
  AC50: 17.8 µM (inconclusive)

## COC(=O)C1=C(C(=O)OC)C(c2cc(Br)ccc2O)c2sc(O)nc2S1 (configuration not stated)
Genome polyprotein
  IC50: 81.6 µM (active)
[9]
  AC50: 24.6 µM (active)
[10]
  IC50: > 66 µM (inactive)
[11]
  IC50: > 66 µM (inactive)

## COc1ccc(C(C(=O)NC2CCCCC2)N(C(=O)c2sc(C)nc2C)c2ccc(OC)cc2)cc1 (configuration not stated)
[6]
  IC50: 8.51 µM (active)
[7]
  EC50: > 53 µM (inactive)
[8]
  IC50: > 20 µM (inactive)
Cytochrome P450 2C9
  AC50: 17.8 µM (inconclusive)

## CCCCOc1ccccc1C1C(C(=O)OC)=CN(CC)C=C1C(=O)OC
[12]
  EC50: > 112 µM (not active)
[13]
  EC50: > 112 µM (not active)
[6]
  IC50: 3.74 µM (active)
[7]
  EC50: > 53 µM (inactive)
[8]
  IC50: 16 µM (active)

## COc1ccc(Br)cc1CNC(=O)CN1C(=O)C(c2ccccc2)Oc2cccnc21 (configuration not stated)
[14]
  IC50: 14.3 µM (active)
[15]
  IC50: 31.6 µM (active)

## COc1ccccc1N1C(=O)S/C(=C\c2ccc(C)s2)C1=O
[16]
  EC50: > 300 µM (not active)
[17]
  EC50: 10.1 µM (inconclusive)
[18]
  IC50: 23.5 µM (active)
[19]
  IC50: > 100 µM (inactive)
Prothrombin
  IC50: 36.3 µM (active)

## O=C(CCN1C(=O)NC2(CCCC2)C1=O)Nc1ccc(-c2nc3ccccc3s2)cc1
[18]
  IC50: 19.3 µM (active)
[19]
  IC50: > 100 µM (inactive)
Prothrombin
  IC50: 19.5 µM (active)

## Cc1ccccc1S(=O)(=O)Nc1nc2ccccc2nc1N1CCc2ccccc2C1
Cysteine protease ATG4B
  IC50: 29.9 µM (inactive)
Phospholipase A2
  IC50: 16.8 µM (active)

## CCOc1ccc(NC(=O)CSc2nc(-c3cccs3)cc(C(F)(F)F)n2)c([N+](=O)[O-])c1
Melanocortin receptor 4
  EC50: > 89.2 µM (inactive)

## O=C(CC1N=C2c3ccccc3N=C(SCc3ccc(Cl)cc3)N2C1=O)NCc1ccco1 (configuration not stated)
[14]
  IC50: 7.43 µM (active)
[15]
  IC50: 23.6 µM (active)

## Cc1cc(C)c(CN2CCN(CCCn3cnc(C(=O)Nc4ccc(C)c(C)c4)n3)CC2)c(C)c1
Melanocortin receptor 4
  EC50: > 89.2 µM (inactive)

## O=C(NC(c1ccc(Cl)cc1)c1cccnc1)C1CCN(CCOc2ccc(Cl)cc2Cl)CC1 (configuration not stated)
Melanocortin receptor 4
  EC50: > 89.2 µM (inactive)

## Cc1ccc(OC(=O)N(C)C[C@@H]2OCc3cnnn3CCCC(=O)N([C@@H](C)CO)C[C@@H]2C)cc1
[6]
  IC50: < 0.368 µM (active)
[7]
  EC50: > 53 µM (inactive)
[8]
  IC50: > 20 µM (inactive)
